Publication PMC5770958, “Dual Action of Mexiletine and Its Pyrroline Derivatives as Skeletal Muscle Sodium Channel Blockers and Anti-oxidant Compounds: Toward Novel Therapeutic Potential” (Frontiers in Pharmacology, 2018)
“And” between values parts separate entries of the source, which are not always exact repeats. Equal entries are not always repeated. “Also recorded” adds a separate entry of the source. Where two headings read alike, the source gives them in different places.

Assays:
[1] = system: skeletal-muscle sodium channels (NaV1.4); test: Voltage-clamp recordings of INa in single muscle fibers: tonic block and use-dependent block; type: cell-based, Rana Esculenta; settings: for IC50: HP -100 mV to -20 mV; for BT/BUD (IC50 TB/IC50 UDB 10-Hz): ratio tonic to 10-Hz use-dependent block
[2] = system: skeletal-muscle sodium channels (NaV1.4); test: Voltage-dependent block of INa at HP -140 and -70 mV (resting and inactivated state affinity); type: cell-based, Rana Esculenta; settings: for IC50: 0.3-Hz; for Ki: computed from Kr, K-70 and h∞ curve, read-out: Inactivated state block, calculated Ki
Description: The cut-end fiber was then bathed in an internal solution and mounted across three chamber partitions, which delineated four pools. Three strips of vaseline were applied over the fiber and carefully sealed to the fiber to reduce leakage. […] Four KCl/agar bridges electrodes connected the recording chamber to the voltage-clamp amplifier based on methods described by Hille and Campbell ([1976]). For recording sodium currents (INa), the solution in the pool A was replaced with the external solution and after about 10 min of equilibration the recordings were performed at 10°C. […] Particular care was taken to verify that no change occurred in the membrane area in pool A throughout the experiments. Sodium currents were recorded using an amplifier connected via a A/D and D/A Digidata 1,200 Interface (Axon) to a 486 DX2/66 personal computer and stored on the hard disk. The stimulation protocols and data acquisition were controlled by Clampex software (pClamp6; Axon Instruments, Foster City, CA, USA) (Mele et al., [2014]). The currents flowing in response to depolarizing command voltages were low pass filtered at 10 kHz (Frequency Devices, Haverhill, MA, USA), visualized on an oscilloscope and sampled at 20 kHz. When necessary, leak and capacities currents were subtracted by P/4 method. The acquired traces were analyzed offline using Clampfit software (pClamp6; Axon Instruments). […] The degree of use-dependent block was computed as the value of the steady-state INa, max at this point normalized to the current at the same point in the absence of drug. This parameter reflects the potency of the drug for blocking the channels under conditions of high-frequency stimulation (i.e., as occurs during myotonic action potential firing) (De Luca et al., [2003a],[b]). […] The concentration-dependence of the drug effect was calculated as the half-maximal blocking concentration (IC50) at −140 mV, which allowed calculation of the affinity constant for the resting state (Kr). […] The affinity constant of the drug for the inactivated channel (Ki) was the computed as described below. Steady-state inactivation (h∞) curves were determined by a cyclic protocol of pulse sequences. […] Muraglia et al., [2014]). All data were expressed as mean ± S.E.M. The IC50 values, in the various experimental conditions, were determined by using a non-linear least squares fit of the concentration-response curves to the following logistic equation: […] K is IC50; n is the logistic slope factor, and [drug] is the molar concentration of the compound (Talon et al., [2001]). […] Statistical significance of differences between pairs of mean values has been estimated by unpaired Student's t-test and considered significant for p < 0.05. Two-way ANOVA and Bonferroni post-hoc corrections have been used for multiple comparison of experimental data means. The statistical significance between IC50 values obtained from the fit was evaluated using a number of degrees of freedom equal to the total number of preparations determining each point of the curve minus the number of means determining the curve minus two for the free parameters. The measurements of ionization constants and lipophilicity were performed on a Sirius GLpKa analyzer for pH-metric pKa and LogP (Sirius Analytical Instruments Ltd-Forest Row-UK). Correlation analysis was evaluated by fitting the experimental data point to linear regression analysis. Nonlinear equation fitting and processing for data graphics were done by FigP Software (Biosoft, Cambridge, UK).

[3] = system: skeletal-muscle sodium channels (NaV1.4); test: Steady-state inactivation (h∞) curves of sodium channels; type: cell-based, Rana Esculenta; settings: for Shift in the h∞ curves toward more negative potentials: 10 μM; for Vh1/2: 10 μM drug
Procedure: Steady-state inactivation (h∞) curves were determined by a cyclic protocol of pulse sequences.
(§1) The h∞ curves have been fitted with a single Boltzmann, and the potential at which 50% of the sodium channels were inactivated (Vh1/2) was calculated at the inflection point of the curves. Statistical significance of differences between pairs of mean values has been estimated by unpaired Student's t-test and considered significant for p < 0.05. Two-way ANOVA and Bonferroni post-hoc corrections have been used for multiple comparison of experimental data means. The statistical significance between IC50 values obtained from the fit was evaluated using a number of degrees of freedom equal to the total number of preparations determining each point of the curve minus the number of means determining the curve minus two for the free parameters. The measurements of ionization constants and lipophilicity were performed on a Sirius GLpKa analyzer for pH-metric pKa and LogP (Sirius Analytical Instruments Ltd-Forest Row-UK). Correlation analysis was evaluated by fitting the experimental data point to linear regression analysis. Nonlinear equation fitting and processing for data graphics were done by FigP Software (Biosoft, Cambridge, UK).
Fig. S2: Steady-state inactivation (h∞) curves were determined by a cyclic protocol of pulse […]
duration, and a test pulse to -20 mV for 10ms; after a pause of 3 s, the sequence was repeated 18-20 times with the prepulse potential value increased each time in 5 mV steps. A more quantitative estimate of the absolute affinity constant for the inactivated state (Ki) was obtained from the voltage dependent distribution of the channels in the resting (h) and inactivated state (1-h) obtained from […]

[4] = system: skeletal-muscle sodium channels (NaV1.4); test: Recovery from inactivation of drug-bound sodium channels; open channel block check; type: cell-based, Rana Esculenta; settings: 3 and 10 μM
[5] = Ionization constants and lipophilicity (Sirius GLpKa analyzer); type: physicochemical; settings: for pKa: amine group of the drugs; for logD: pH 7.4, calculated from LogP and pKa values, read-out: Log D7.4
Procedure: as §1

C2C12 cells [6] = test: Cyto-protective effect against H2O2-induced oxidative stress (CCK-8); type: cell-based, Murine; settings: for Cyto-protective effect: C2C12, 300 μM H2O2, drug 0.1-30 μM, 2 h before H2O2 plus 6 h
Procedure: (§2) Murine C2C12 skeletal muscle cells were cultured in DMEM supplemented with 10% fetal bovine serum, 1% penicillin, 1% streptomycin and 1% glutamine and were maintained at 37°C in 5% CO2/95% air. Cells obtained by sub-confluent cultures (about 70%) were seeded in 96 multiwell plate at a density of approximately 4.5 × 10^3 cells per well. Eighteen hours after seeding, either the cytotoxic effect of H2O2, mexiletine, Me5, their tetramethyl-pyrroline derivatives, and PP2 or the potential protective effect of all above mentioned compounds and N-acetyl cysteine (NAC) against the H2O2-induced oxidative stress has been investigated. […] To evaluate the cyto-protective effect of the drugs, C2C12 cells were incubated with the test compounds 2 h before the application of H2O2 at 300 μM and 1 mM, and then maintained for additional 6h. Two hours before absorbance lecture, 10 μl of Cell Counting Kit-8 pure solution (CCK-8 Alexis Biochemicals) was added into each well. The CCK-8 solution contains the monosodium salt of [2-(2-methoxy-4-nitrophenyl)-3-(4-nitrophenyl)-5-(2,4-disulfophenyl)-2H-tetrazolium (WST-8), which is reduced by cellular dehydrogenases to give a yellow colored product (formazan) absorbing at 450 nm. The quantity of formazan dye is directly proportional to the number of viable cells. Absorbance was measured at 450 nm with a microplate spectrophotometer (Victor V31420-40, PerkinElmer). This assay was successfully used to investigate on the mechanism of ion channel-regulated cell proliferation in cell lines (Tricarico et al., [2013]).
Fresh stock solutions of the test compounds were made daily and diluted in DMEM as required. Only for the tetramethyl-pyrroline derivatives and PP2, stock solutions in DMSO were prepared and then diluted in DMEM. The maximal concentration of DMSO in the diluted solutions was <0.2%. As expected, 0.2% DMSO had no effect on cell survival (data not shown). Accordingly, cell viability in the presence of drugs was expressed as percent change with respect to the cell treated with vehicle alone, after proper subtraction of blank absorbance.

C2C12 cells [7] = test: Cell culture cytotoxicity assay (CCK-8), 8 h incubation; type: cell-based, Murine
Procedure: as §2, with “The CCK-8 solution contains the monosodium salt of [2-(2-methoxy-4-nitrophenyl)-3-(4-nitrophenyl)-5-(2,4-disulfophenyl)-2H-tetrazolium (WST-8), which is reduced by cellular dehydrogenases to give a yellow colored product (formazan) absorbing at 450 nm.” left out, “This assay was successfully used to investigate on the mechanism of ion channel-regulated cell proliferation in cell lines (Tricarico et al., [2013]).” left out
(§3) Fresh stock solutions of the test compounds were made daily and diluted in DMEM as required. […] Accordingly, cell viability in the presence of drugs was expressed as percent change with respect to the cell treated with vehicle alone, after proper subtraction of blank absorbance.
(§4) All data were expressed as mean ± S.E.M. The IC50 values, in the various experimental conditions, were determined by using a non-linear least squares fit of the concentration-response curves to the following logistic equation: Effect = −100/{1+(K/[drug])n}, where Effect is the percentage change of INa; −100 is the maximal percentage block of INa; K is IC50; n is the logistic slope factor, and [drug] is the molar concentration of the compound (Talon et al., [2001]). […] The h∞ curves have been fitted with a single Boltzmann, and the potential at which 50% of the sodium channels were inactivated (Vh1/2) was calculated at the inflection point of the curves. […]

[8] = as above; type: cell-based, Murine; settings: mouse, C2C12 skeletal muscle cells, 8 h of incubation, read-out: Cytotoxic effect IC50
Procedure: as §2, with “The CCK-8 solution contains the monosodium salt of [2-(2-methoxy-4-nitrophenyl)-3-(4-nitrophenyl)-5-(2,4-disulfophenyl)-2H-tetrazolium (WST-8), which is reduced by cellular dehydrogenases to give a yellow colored product (formazan) absorbing at 450 nm.” left out, “This assay was successfully used to investigate on the mechanism of ion channel-regulated cell proliferation in cell lines (Tricarico et al., [2013]).” left out
as §3, §4

[9] = 0.3-Hz, 10°C, read-out: Tonic block IC50
[10] = 10-Hz trains, read-out: Use-dependent block 10-Hz IC50
[11] = HP -70 mV, read-out: Voltage-dependent block HP-70 mV IC50, K-70
[12] = HP -140 mV, resting state, read-out: Voltage-dependent block HP-140 mV IC50, Kr

| SMILES | IC50 [1, 9] [µM] | IC50 [1, 10] [µM] | IC50 [2, 11] [µM] | IC50 [2, 12] [µM] | Ki [2] [µM] | logP [5] | pKa [5] | logD [5] | Cyto-protective effect (C2C12 cells [6]) | also measured |
| --- | --- | --- | --- | --- | --- | --- | --- | --- | --- | --- |
| Cc1cccc(C)c1OCC(NC(=O)C1=CC(C)(C)NC1(C)C)C(C)C (stereo not drawn) [CI16, N-{1-[(2,6-dimethylphenoxy)methyl]-2-methylpropyl}-2,2,5,5-tetramethyl-2,5-dihydro-1H-pyrrole-3-carboxamide] | 12.6 ± 0.2 | 0.6 ± 0.1 | 1.8 ± 0.4 | 7.7 ± 0.5 | 1.8 | 3.2 ± 0.3 | 8.53 ± 0.01 | 2.1 ± 0.1 | remarkable cyto-protection; also recorded: a decrease in efficacy | Fold more potent than Me5, tonic block ([1]; Me5 ref De Luca et al., 2000): ~2 fold; Fold more potent than Me5, use-dependent block ([1]; Me5 ref De Luca et al., 2000): ~9 fold; BT/BUD (IC50 TB/IC50 UDB 10-Hz) [1]: 21; Shift in the h∞ curves toward more negative potentials [3]: 6.3 ± 1.1 mV; Vh1/2 [3]: -83.7±0.1 mV; Time constants for recovery from inactivation [4]: slowest time constants |
| OO [H2O2] |  |  |  |  |  |  |  |  |  | IC50 (C2C12 cells [7]; 8 h of incubation, read-out: Cytotoxic effect IC50): 292 ± 25 µM |
| Cc1cccc(C)c1OCC(N)C(C)C (stereo not drawn) [Me5, 1-(2,6-dimethylphenoxy)-3-methyl-2-butanamine] |  |  |  |  |  | 2.72 ± 0.02 | 8.97 ± 0.03 | 1.1 ± 0.1 | moderate, albeit significant, cyto-protective effect |  |
| Cc1cccc(C)c1OCC(C)N (stereo not drawn) [Mex, 2-(2,6-dimethylphenoxy)-1-amino-propanemethylethylamine, reference compound] | 75.3 ± 8 | 23.6 ± 2.8 | 1.9 ± 0.2 | 148 ± 20 | 2 |  |  |  | moderate, albeit significant, cyto-protective effect | R (IC50 of Mex / IC50 of compound), tonic block [1]: 1; R (IC50 of Mex / IC50 of compound), use-dependent block 10-Hz [1]: 1; IC50 at 8 h [8]: 775 ± 88 µM |
| CC(C)(C)n1nc(-c2ccc(Cl)cc2)c2c(N)ncnc21 [PP2] |  |  |  |  |  |  |  |  |  | Cytotoxicity compared with Mex and its analogs (C2C12 cells [7]; 10-100 μM): more cytotoxic than Mex and its analogs |
| Cc1cccc(C)c1OC[C@@H](C)N [R-Mex, reference compound] | 74 ± 8 | 31 ± 8 |  |  |  |  |  |  |  |  |
| Cc1cccc(C)c1OC[C@H](C)N [S-Mex, reference compound] | 127 ± 2.8 | 32 ± 7 |  |  |  |  |  |  |  |  |
| Cc1cccc(C)c1OCC(C)NC(=O)C1=CC(C)(C)NC1(C)C (stereo not drawn) [VM11, N-[2-(2,6-dimethylphenoxy)-1-methylethyl]-2,2,5,5-tetramethyl-2,5-dihydro-1H-pyrrole-3-carboxamide] | 23.4 ± 0.9 | 2 ± 0.1 | 4.5 ± 0.1 | 15.5 ± 0.6 | 4.2 | 2.8 ± 0.1 | 8.5 ± 0.1 | 1.7 ± 0.1 | remarkable cyto-protection; also recorded: maintained the same cyto-protection observed between 3 and 30 μM | BT/BUD (IC50 TB/IC50 UDB 10-Hz) [1]: 11.7 and 12; R (IC50 of Mex / IC50 of compound), use-dependent block 10-Hz ([1]; relative potency toward Mex, racemic form): 12; Shift in the h∞ curves toward more negative potentials [3]: 3.6 ± 1.1 mV; Vh1/2 [3]: -82±0.3 mV; Cell protection (C2C12 cells [6]; C2C12, 300 μM H2O2, drug 100 μM): 43.5 ± 2.03% |
